Measurements published in patent US6949553B2, “Aliphatic compounds, their synthesis method, and utilization of the same” (Maruha Corporation, priority 2001, dated 2005).

How the values were obtained:
[1] = test system: neutrophils and vascular endothelial cells; experiment: Pseudo-blood vessel in vitro inflammation model (TNFα, neutrophil migration through endothelial cell layer); type: cell-based, bovine; details: 30, 3 or 0.3 μM, TNFα 50 ng/ml
Experimental: A layer of bovine endothelial cells was adhered to the bottom surface of the membrane, and cultured for 80 minutes at 37° C. in 5% CO2. Then, a suspension of fluorescence-labeled neutrophils was added to the upper chamber of the transwell. Simultaneously, TNFα was suspended in the cell suspension in the upper chamber to an end concentration of 50, 25 or 17 ng/ml.
That is, in the above model, the phenomena that neutrophils pass from the upper chamber through the vascular endothelial cell layer into the lower chamber, and neutrophils adhere to the endothelial cell layer mimic a state where in response to TNFα within the blood vessel, neutrophils migrate from within the blood vessel to the site of inflammation.
In the same manner as described above, the number of neutrophils passing from the upper chamber through the vascular endothelial cell layer into the lower chamber, and the number of neutrophils adhering to the endothelial cell layer were measured. Based on these numbers, the neutrophil migration rate (%) was calculated. The neutrophil migration rate was expressed as the relative value (%) of the number of the migrating neutrophils in the drug treatment group with respect to the number of the migrating neutrophils in the negative control group (physiological saline).

platelets [2] = experiment: Collagen-induced in vitro platelet aggregation (rabbit PRP, transmittance); type: cell-based; details: Oryctolagus cuniculus; collagen 0.2 μg/ml, rabbit platelet rich plasma; read-out: 50% Inhibition Point for Platelet Aggregation, IC50
Experimental: Collagen-induced in vitro Platelet Aggregation
It was studied whether the compounds of the present invention would inhibit platelet aggregation induced by collagen.
These compounds were each diluted with physiological saline to end concentrations of 1×10^−7M, 3×10^−7M, 1×10^−6M, 3×10^−6M, 1×10^−5M, 3×10^−5M and 1×10^−4M.
Indomethacin was used as a positive control. Indomethacin was dissolved in methanol, and then diluted with physiological saline to end concentrations of 1×10^−6M, 3×10^−6M and 1×10^−5M.
Physiological saline was used as a negative control.
The tube was centrifuged at 900 rpm for 10 minutes at room temperature to separate the supernatant (PRP, platelet rich plasma fraction). The residue was further centrifuged for 15 minutes at 2,500 rpm to obtain the supernatant (PPP, platelet poor plasma fraction).
PPP (platelet poor plasma fraction) was placed in a cuvette, and the cuvette was mounted in a 37° C. incubator for PPP of an aggregometer (Hematracer 240 12ch, manufactured by MCM). Then, 200 μl of PRP (platelet rich plasma fraction) was added into a cuvette, and the cuvette was mounted in a reactor for PRP. With stirring by a magnetic stirrer, the transmittance of PPP was corrected to T650 nm=100%, and the transmittance of PRP was corrected to T650 nm=0%, by automatic adjustment for 30 seconds.
The study substance (20 μl) at a predetermined concentration was added into the cuvette and, 30 seconds later, 20 μl (end concentration 0.2 μg/ml) of collagen (produced by MCM) was added. Subsequent changes in the transmittance were recorded for 5 minutes. When the platelets are aggregated, the transmittance increases. When aggregation peaked, the transmittance T at maximum aggregation was compared with the transmittance T0 of the negative control, and the aggregation inhibition rate was expressed as percentage using the following equation: Aggregation inhibition rate=(1−T/T0)×100
From an aggregation inhibition curve obtained, a regression equation was derived by approximation of the linear type.

platelets [3] = experiment: Ex vivo platelet aggregation after intravenous administration; type: in vivo, rat; details: 0.1 mg/kg intravenous, blood 1 hour after administration, collagen 1 to 6 μg/ml
Experimental: The blood was withdrawn at three points in time, 10 minutes, 30 minutes and 1 hour after administration. Platelets were prepared from the blood samples taken, and they were used to study the aggregation rates when platelet aggregation was induced by 0.3 to 6 μg/ml of collagen. In a control group, the aggregation rates after administration of a solvent (physiological saline) were measured.
It was studied whether the compound of the present invention would suppress ex vivo platelet aggregation dose-dependently.
The blood was withdrawn 60 minutes after administration, and platelets were prepared from the blood. Platelet aggregation was induced by 4 to 7 μg/ml of collagen using the platelets.
The blood was withdrawn 1 hour after intravenous administration, and platelets were prepared from the blood. Platelet aggregation was induced by 1 to 6 μg/ml of collagen using the platelets.

platelets [4] = experiment: In vitro platelet aggregation by various inducers, rabbit platelets; type: cell-based; details: Oryctolagus cuniculus, Platelet; inducer collagen (0.1 to 1 μg/ml), rabbit platelets; read-out: 50% inhibition point, IC50, for in vitro platelet aggregation
From the text: (§1) Next, the suppression of platelet aggregation by the compounds of the present invention was studied in the same manner as described above with the use of not only collagen, but also arachidonic acid, ADP, thrombin, serotonin, epinephrine and U46619 (pseudo-thromboxane A2 substance) as inducers.
(§2) As platelets, platelets prepared from rats and guinea pigs as well as rabbits were also used.
(§3) Collagen and ADP were purchased from MCM, and used in accordance with the method of preparation described in the manuals attached to the purchased products. Serotonin, epinephrine and thrombin were purchased from Sigma, and used as solutions in physiological saline for injection (Otsuka Pharmaceutical Factory). Arachidonic acid was purchased from Cayman, and dispersed in physiological saline for injection (Otsuka Pharmaceutical Factory) with the use of an immersion type ultrasonic oscillator (US150, NIPPON SEIKI, tip end diameter ca. 3.5 mm). U46619 (pseudo-thromboxane substance) was purchased from FUNAKOSHI, and dissolved in physiological saline for injection (Otsuka Pharmaceutical Factory) when used.
(§4) Collagen (0.1 to 1 μg/ml), arachidonic acid (1 mM), ADP (1 μM), thrombin (1 U/ml), serotonin (100 μM), epinephrine (100 to 200 μM), and U46619 (3 μM) were used.
(§5) Indomethacin was used as a positive control for measuring the suppression of platelet aggregation induced by collagen.

platelets [5] = experiment: In vitro platelet aggregation by various inducers, guinea pig platelets; type: cell-based; details: Cavia porcellus, inducer collagen (0.1 to 1 μg/ml), guinea pig platelets, read-out: 50% inhibition point, IC50, for in vitro platelet aggregation
From the text: as §1, §2, §3, §4, §5

platelets [6] = experiment: In vitro platelet aggregation by various inducers, rat platelets; type: cell-based; details: inducer collagen (0.1 to 1 μg/ml), rat platelets, read-out: 50% inhibition point, IC50, for in vitro platelet aggregation
From the text: as §1, §2, §3, §4, §5

| Structure (SMILES) | IC50 (platelets [2]) | other results |
| --- | --- | --- |
| CC/C=C\C/C=C\C/C=C\C/C=C\C/C=C\C/C=C\CCC(=O)NN1CCN(C)CC1 [Compound 1, (4Z,7Z,10Z,13Z,16Z,19Z)-N-(4-methylpiperazin-1-yl)docosahexaenoamide] | 7.9 µM | neutrophil passage through vascular endothelial cell layer (in words) [1]: suppressed neutrophil passage dose-dependently |
| CCCCCCCC(=O)NCCC1CCCN1C (stereo not drawn) [Compound 3, N-[2-(1-methylpyrrolidin-2-yl)ethyl]caprylamide] | 8.1 µM |  |
| CCCCCCCCCCCCCC(=O)NCCC1CCCN1C (stereo not drawn) [Compound 4, N-[2-(1-methylpyrrolidin-2-yl)ethyl]myristamide] | 42 µM |  |
| CCCCCCCC/C=C\CCCCCCCC(=O)NCCC1CCCN1C (stereo not drawn) [Compound 5, 9Z-N-[2-(1-methylpyrrolidin-2-yl)ethyl]oleamide] | 5.6 µM | ex vivo platelet aggregation (in words) (platelets [3]): suppress platelet aggregation |
| CCCCC/C=C\C/C=C\CCCCCCCC(=O)NCCC1CCCN1C (stereo not drawn) [Compound 6, (9Z,12Z)-N-[2-(1-methylpyrrolidin-2-yl)ethyl]linoleamide] | 2.1 µM |  |
| CC/C=C\C/C=C\C/C=C\CCCCCCCC(=O)NCCC1CCCN1C (stereo not drawn) [Compound 7, (9Z,12Z,15Z)-N-[2-(1-methylpyrrolidin-2-yl)ethyl]linolenamide] | 3.7 µM |  |
| CC/C=C\C/C=C\C/C=C\C/C=C\C/C=C\CCCC(=O)NCCC1CCCN1C (stereo not drawn) [Compound 8, (5Z,8Z,11Z,14Z,17Z)-N-[2-(1-methylpyrrolidin-2-yl)ethyl]eicosapentaenoamide] | 3.7 µM |  |
| CC/C=C\C/C=C\C/C=C\C/C=C\C/C=C\C/C=C\CCC(=O)NCC1CCCN1C (stereo not drawn) [Compound 9, (4Z,7Z,10Z,13Z,16Z,19Z)-N-[(1-methylpyrrolidin-2-yl)methyl]docosahexaenoamide] | 1.5 µM |  |
| CC/C=C\C/C=C\C/C=C\C/C=C\C/C=C\C/C=C\CCC(=O)NCCCC1CCCN1C (stereo not drawn) [Compound 11, (4Z,7Z,10Z,13Z,16Z,19Z)-N-[3-(1-methylpyrrolidin-2-yl)propyl]docosahexaenoamide] | 4.2 µM |  |
| COc1ccc2c(c1)c(CC(=O)O)c(C)n2C(=O)c1ccc(Cl)cc1 [Indomethacin, reference compound] | 5 µM | IC50 (platelets [4]): 4 µM; IC50 (platelets [5]): 29 µM; IC50 (platelets [6]): 18 µM |
